Results taken from patent US12653795B1, “Bupropion as a modulator of drug activity” (ANTECIP BIOVENTURES II LLC, priority 2022, dated 2026).

Experiment: Pharmacokinetics after administration of the subject combination
Conditions: co-administered with bupropion; dextromethorphan 30 to 60 mg, bupropion 75 to 150 mg
Description: In the subject combination, bupropion inhibits the metabolism of dextromethorphan via CYP2D6.

## COc1ccc2c(c1)[C@]13CCCC[C@@H]1[C@H](C2)N(C)CC3 [dextromethorphan]
  pharmacokinetics at steady state (dose proportionality of AUC and Cmax): nonlinear pharmacokinetics
